Measurements: patent US20070105721A1, “Vinylogous 4-Hpyrones and their use in promoting plant growth” (priority 2003, published 2007)

Columns and labels:
Format in all cases: in vivo
[1] = system: Grand Rapids Lettuce seeds (Waltham strain); experiment: Grand Rapids bioassay; conditions: for Germination, Grand Rapids: compounds isolated from smoke, mean (SEM)
Procedure: Grand Rapids Lettuce seeds (Waltham strain) were obtained from R.B. Dessert Seed Co. and were frozen in sachets until use. For testing of aqueous samples, 2.5 mL of test solution was applied to three replicates of 40-50 seeds in Petri dishes (90 mm) lined with two layers of Whatman No. 1 filter paper (7 cm). Millipore filtered water (MP water) was used as a control for each experiment and dilutions of each sample were used to ensure the optimum concentration range for activity. Fractions were reconstituted to their original concentration (before fractionation) and dilutions were made using MP water. Petri dishes were sealed with a layer of plastic wrap, and stored in a light proof container. All manipulations involving the seed were carried out in a dark room and germinants, based on the appearance of a radicle, were scored after 48 hours incubation.

Stylidium affine seeds = experiment: Native bioassay; conditions: compounds isolated from smoke; mean (SEM)
Procedure: (§1) Conostylis aculeata and Stylidium affine seeds were obtained from Nindethana seed service and stored before use. For testing of aqueous samples, three replicates of 20-30 sterilised seeds were added to UV sterilised petri dishes (90 mm), containing two Whatman No. 1 filter papers (7 cm) moistened with the filtered test solution (2.5 mL, 0.22 μm). MP water was used as a control for each experiment and dilutions of each sample were used to ensure the optimum concentration range for activity. Petri dishes were then sealed with parafilm and incubated in the dark at 20±1° C. The seeds were scored on a weekly basis with optimum germination achieved between 4-6 weeks.

[2] = system: Conostylis aculeata seeds; experiment: Native bioassay; conditions: compounds isolated from smoke; mean (SEM)
Procedure: as §1

[3] = 100 ppm, * = inhibits germination at this concentration

| Compound | Germination of formula (5) analogues ([1]; 1 ppm) | Germination of formula (5) analogues ([1]; 10 ppm) | Germination of formula (5) analogues ([1]; 100 ppb) | Germination of formula (5) analogues [1, 3] | Germination, Grand Rapids [1] | Germination, Stylidium affine (Stylidium affine seeds) | Germination, Conostylis aculeata [2] |
| --- | --- | --- | --- | --- | --- | --- | --- |
| CCOC(=O)C=C1C=COC=C1 [Compound 5a, ethyl 2-(4H-pyran-4-ylidene) acetate] | 86.7 (±7.4) | 94.7 (±0.4) | 66.9 (±10.2) | 99.1 (±0.9) |  |  |  |
| CCOC(=O)C(SC(C)=O)=C1C=COC=C1 [Compound 5b, ethyl 2-(acetylthio)-2-(4H-pyran-4-ylidene) acetate] | 64.7 (±4.5) | 82.6 (±3.4) | 54.3 (±7.2) | *39.4 (±2.7) |  |  |  |
| CC1=CC(=CC(=O)c2ccccc2)C=C(C)O1 [Compound 5c, 2-(2,6-dimethyl-4H-pyran-4-ylidene)-1-phenylethanone] | 54.3 (±3.1) | 69.3 (±4.4) | 53.2 (±4.1) | 74.1 (±6.7) |  |  |  |
| O=C1C=C(c2ccco2)CO1 [Compound L-1, 2,3′-bifuran-5′(2′H)-one] |  |  |  |  | 42.4 (6.6) % | 0% | 7.5 (1.3) % |
| Cc1cc(=O)oc2ccoc12 [Compound L-3, 7-methyl-5H-furo[3,2-b]pyran-5-one] |  |  |  |  | 42.1 (1.5) % | 0% | 11.6 (2.5) % |
